Laboratory results taken from patent US20210338782A1, “STORAGE STABLE SOMATOSTATIN-DOPAMINE CHIMERIC COMPOUNDS AND SALT FORMS THEREOF” (Cydan II, Inc., priority 2019, published 2021).
Structures can show the parent of a compound that is named as a salt.

Legend:
Assay type in all cases: physicochemical
[1] = Time and temperature stability of lyophilized TBR-760 salts in sealed glass vials (visual appearance, HPLC); details: for salt form degraded: sealed glass vials, HPLC, hydrochloride salt
Experimental: Lyophilized TBR-760 salts prepared as described above were assessed for stability by visual appearance and HPLC following initial production of the salt and following incubation of the salt at 20° C., 40° C., and 60° C. for 2, 4, and 8 weeks in sealed, glass vials. Changes in visual appearance of the salt were noted by evaluating the color of the substance following each incubation condition. Purity of the salt following each incubation condition was evaluated by HPLC. The number and quantity of degradation products were determined according to the number of absorbance peaks that resulted at different retention times and the size of the peaks.

[2] = Thermogravimetric analysis (TGA) of TBR-760 salt forms; details: ramp 5.0° C. per minute from 25 to 400° C.; hydrochloride salt
Outline: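 Each salt form heated from 25 to 400 °C at 5.0 °C per minute while sample weight was recorded, to assess thermal stability.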

[3] = Solid state (thermolytic) stability of TBR-760 salt forms, open container, UPLC peak purity and appearance
Outline: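 About 50 mg of each salt form exposed in open containers at 25° C/60% RH, 40° C/75% RH or 60° C, then stored at −20° C. After 15–20 min equilibration, appearance was noted; samples were dissolved in 0.1% TFA water and diluted to 0.125 mg/mL for UPLC peak purity.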

[4] = Photostability of TBR-760 salt forms (ICH Q1B, visible and UV light), appearance and UPLC purity; details: for degradation upon exposure to visible or UV light, in words: visible and UV light
Outline: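 Salt forms in clear sealed vials were exposed per ICH Q1B to 1.2 million lux hours visible and 200 watt hours/square meter UV, alongside foil-wrapped amber dark controls; reference controls were held at −20° C. Samples were inspected visually for appearance, then analysed by UPLC for purity.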

[5] = Thermostability of alternative salt forms of lanreotide and TBR-760 (UPLC); details: for thermostability in words: increasing temperature and humidity (25° C./60% RH, 40° C./75% RH, 60° C.) up to 4 weeks
Experimental: Each TBR-760 salt was further evaluated for thermolytic stability over time by setting up three different exposure conditions (25° C. at 60% relative humidity (RH); 40° C. at 75% RH; or 60° C. with open and closed container systems (open dish/closed dish). Approximately 50 mg of each salt form was weighed in a nitrogen-flushed glove box for use in the studies. All samples were stored at −20° C. in a good laboratory practice (GLP) freezer both before and after exposure to the indicated conditions.
The stability of each salt form was assessed by monitoring the post-exposure drug peak purity and by evaluating the post-exposure visual appearance of the salt. The samples were removed from the exposure conditions and allowed to equilibrate to ambient conditions for 15-20 mins. An appropriate amount of each sample was weighed for analysis and dissolved in diluent (deionized water containing 0.1% TFA) to obtain a stock concentration of 1 mg/mL. The stock solution was then diluted to 0.125 mg/mL in an HPLC vial using diluent and the samples were run on a Waters Acquity UPLC system using the parameters shown in Table 4.
We conducted thermostability studies of lanreotide acetate substantially as described in Example 6. These experiments confirmed that lanreotide acetate is […] when exposed to increasing temperature and humidity conditions over time (FIG. 45). […] (FIG. 45). This degree of thermal and humidity instability is disfavored for a pharmaceutical agent, particularly one intended for patient self-administration at home.
To determine whether a thermostable salt form of TBR-760 could be manufactured, a salt exchange was performed as described in Example 1 to generate bromide and chloride salts of TBR-760. Lanreotide bromide and lanreotide chloride salts were also generated and assessed for thermostability to evaluate the effect of the salt form on compound stability and to compare stability of lanreotide and TBR-760 of each salt.
UPLC assays performed as described in Example 6 were further used to determine the number of degradants—and thus the number of impurities—in each sample. Results showing the purity assessment of each sample following thermostability studies are shown in FIGS. 48A-48B (lanreotide and TBR-760 acetate salts), 49A-49B (lanreotide and TBR-760 bromide salts), and 50A-50B (lanreotide and TBR-760 chloride salts).

[6] = Photostability of alternative salt forms of lanreotide and TBR-760; details: 1.2 million lux hours visible light or 200 watt hours/square meter UV light, hydrochloride salt
Text: In order to evaluate the light sensitivity and stability of TBR-760 chimeric peptide salts, all five salt forms were exposed to ultraviolet (UV) and visible light according to International Council for Harmonisation of Technical Requirements for Pharmaceuticals for Human Use (ICH) guideline Q1B for photostability testing. In brief, a Caron 6540-1 photostability chamber unit with separate UV and light chambers was used for the studies. Visible light exposure was 1.2 million lux hours and UV exposure was 200 watt hours/square meter.
Photostability of lanreotide acetate, lanreotide bromide, lanreotide chloride, TBR-760 acetate, TBR-760 bromide and TBR760 chloride was tested according to the methods of Example 7. Four samples were prepared for each salt form: one control for each of the UV and visible light exposure conditions (controls isolated from light) and one sample for exposure to each of the UV and visible light conditions. For each sample, 2-5 mg of the salt was weighed into 3 mL clear serum vials and stoppered. Vials containing control samples were wrapped in aluminum foil.
Following exposure to visible and UV light, all lanreotide and TBR-760 salts were analyzed by UPLC as described in Example 7.

[7] = 25° C. at 60% RH, open container
[8] = 40° C. at 75% RH, open container
[9] = 60° C., open dish, hydrochloride salt
[10] = UPLC peak purity, 25° C. at 60% RH, open container, hydrochloride salt
[11] = UPLC peak purity, 40° C. at 75% RH, open container, hydrochloride salt
[12] = UPLC peak purity, 60° C., open dish, hydrochloride salt
[13] = all thermostability conditions, UPLC

CCCN1C[C@H](CSCC(=O)NCCCC[C@@H](NC(=O)CSC[C@@H]2C[C@@H]3c4cccc5[nH]cc(c45)C[C@H]3N(CCC)C2)C(=O)N[C@H]2CSSC[C@@H](C(=O)N[C@H](C(N)=O)[C@@H](C)O)NC(=O)[C@H](CC)NC(=O)[C@H](CCCCN)NC(=O)[C@@H](Cc3c[nH]c4ccccc34)NC(=O)[C@H](Cc3ccc(O)cc3)NC2=O)C[C@@H]2c3cccc4[nH]cc(c34)C[C@H]21 [TBR-760 chloride, Dop2-D-Lys(Dop2)-cyclo[Cys-Tyr-D-Trp-Lys-Abu-Cys]-Thr-NH2 hydrochloride salt]
change in visual appearance ([1]; 8 weeks at 60° C.): no change in the visual appearance | salt form degraded ([1]; 60° C. for 4 weeks): 0.5% | salt form degraded ([1]; 60° C. for 8 weeks): less than 1% | TGA start of decomposition [2]: ~245 °C | Appearance, T = 2 wk [3, 7]: White | Appearance, T = 4 wk [3, 7]: White | Appearance, T = 3 d [3, 7]: White | stability compared with the other salt forms ([3]; 40° C. at 75% RH and 60° C., 2 and 4 weeks, hydrochloride salt): significantly more stable | Appearance, T = 2 wk [3, 8]: White | Appearance, T = 4 wk ([3]; 40° C. at 75% RH, open container, hydrochloride salt): White | Appearance, T = 3 d [3, 8]: White | Appearance, T = 2 wk [3, 9]: White | Appearance, T = 4 wk [3, 9]: White | Appearance, T = 3 d ([3]; 60° C., open dish): White | Purity, T = 2 wk [3, 10]: 98.28 | Purity, T = 4 wk [3, 10]: 98.04 | Purity, T = 3 d [3, 10]: 98.44 | Purity, T = 2 wk [3, 11]: 97.62 | Purity, T = 4 wk [3, 11]: 97.78 | Purity, T = 3 d [3, 11]: 98.36 | Purity, T = 2 wk [3, 12]: 97.58 | Purity, T = 4 wk [3, 12]: 97.17 | Purity, T = 3 d [3, 12]: 98.45 | Purity, Control ([3]; UPLC peak purity, control, stored at -20° C., hydrochloride salt): 98.31 | Appearance, Control ([3]; control, stored at -20° C.): White | additional degradants in chromatogram versus control ([3]; two weeks at 60° C., open dish, UPLC, hydrochloride salt): two | Purity, UV-exposed ([4]; UPLC, UV 200 watt hours/square meter, clear sealed vial, hydrochloride salt): 97.06 | Purity, Control ([4]; UPLC, control in sealed amber vial at -20° C., hydrochloride salt): 98.31 | Purity, Dark Ctrl-UV ([4]; UPLC, dark control in UV chamber, hydrochloride salt): 98.37 | Purity, Dark Crtl-Light ([4]; UPLC, dark control in visible light chamber, hydrochloride salt): 98.33 | Purity, Light-exposed ([4]; UPLC, visible light 1.2 million lux hours, clear sealed vial, hydrochloride salt): 96.41 | stability following UV exposure, in words ([4]; UV 200 watt hours/square meter): more stable following UV exposure than the acetate, mesylate, sulfate, or tosylate salts | Appearance, UV-exposed ([4]; UV 200 watt hours/square meter, clear sealed vial, listed as Chloride, hydrochloride salt): white | Appearance, UV-exposed ([4]; UV 200 watt hours/square meter, clear sealed vial, listed as chloride salt, hydrochloride salt): remained unchanged | Appearance, Control ([4]; control in sealed amber vial at -20° C.): white | Appearance, Dark Ctrl-UV ([4]; dark control in UV chamber, amber vial wrapped in aluminum foil): white | Appearance, Dark Crtl-Light ([4]; dark control in visible light chamber, amber vial wrapped in aluminum foil): white | degradation upon exposure to visible or UV light, in words ([4]; UPLC, hydrochloride salt): more resistant to degradation than TBR-760 acetate | degradation upon exposure to visible or UV light, in words ([4]; UPLC, listed as TBR-760 chloride salt, hydrochloride salt): more stable | stability following light exposure, in words ([4]; visible light 1.2 million lux hours): significantly more stable than the TBR-760 acetate salt | Appearance, Light-exposed ([4]; visible light 1.2 million lux hours, clear sealed vial, listed as Chloride, hydrochloride salt): white | Appearance, Light-exposed ([4]; visible light 1.2 million lux hours, clear sealed vial, listed as chloride, hydrochloride salt): no visible discoloration | compound degraded ([5]; 4 weeks at 60° C. and ambient humidity, hydrochloride salt): less than 0.6% | number of impurities compared with other TBR-760 salts [5, 13]: fewer impurities | percent purity compared with other TBR-760 salts [5, 13]: higher percent purity | thermostability in words ([5]; listed as TBR-760 hydrochloride, hydrochloride salt): thermostable | thermostability in words ([5]; listed as chloride salt form of TBR-760, hydrochloride salt): stable | visible appearance after exposure to visible and UV light ([6]; versus control): did not visibly change | photostability in words (UPLC purity) [6]: as photostable as TBR-760 acetate
